Data set [1] has as its system C4-2B prostate cancer cells. In words: Laser-scanning confocal NIR imaging of cellular uptake and localization. The format is cell-based, human. Conditions: C4-2B PCa cells. The text has this: Moreover, the two dyes also have strong emission at 820-860 nm upon excitation at 750-780 nm, which can be easily detected and visualized by NIR imaging equipment and laser-scanning confocal microscopes. Here, we resorted to the use of Zeiss LSM 510 confocal microscope as the imaging equipment. Although cellular uptake of the conjugate was uncertain, due to the similarity in structure, MHI-clorgyline conjugates were expected to have similar fluorescence properties as the NIR dye itself. Therefore, NIR imaging with laser-scanning confocal microscope was used to examine the cellular uptake of MHI-clorgyline in human prostate epithelial cancer cells (C4-2B). This cell line was selected due to its high levels of the expressed MAO-A.
(§1) An imaging study with the newly synthesized MHI-clorgyline 10 was carried out (FIG. 11).

The next data set addresses T1, MAO A (Homo sapiens, UniProt P21397).
T1 construct: This cell line was selected due to its high levels of the expressed MAO-A; endogenous in cells; host or cells: C4-2B human prostate cancer cells
T1 sequence (P21397 1-527): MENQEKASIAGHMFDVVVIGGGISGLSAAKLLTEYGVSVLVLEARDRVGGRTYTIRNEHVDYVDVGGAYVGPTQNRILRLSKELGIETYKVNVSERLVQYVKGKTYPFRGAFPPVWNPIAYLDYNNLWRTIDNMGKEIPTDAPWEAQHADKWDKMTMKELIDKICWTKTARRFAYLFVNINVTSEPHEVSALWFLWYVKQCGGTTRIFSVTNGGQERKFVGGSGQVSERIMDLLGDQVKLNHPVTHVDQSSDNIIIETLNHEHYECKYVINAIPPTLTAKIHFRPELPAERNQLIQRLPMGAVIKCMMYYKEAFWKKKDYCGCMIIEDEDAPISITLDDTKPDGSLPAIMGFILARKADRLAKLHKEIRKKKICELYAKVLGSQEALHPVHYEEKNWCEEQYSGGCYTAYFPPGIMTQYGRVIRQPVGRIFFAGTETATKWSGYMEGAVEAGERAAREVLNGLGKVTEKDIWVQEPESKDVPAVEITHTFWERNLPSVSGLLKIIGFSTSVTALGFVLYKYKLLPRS
In words: MAO A inhibition assay in C4-2B cells with radiolabeled substrate (C-14 serotonin). The data set is classed as cell-based. The protocol:
Compound 10 was pre-incubated with 1×10^6 prostate C4-2B cells at 37° C. for 20 min. Then, MAO A substrate C-14 serotonin was added to the incubation solution for 37° C. 20 min. At the end of the incubation, the reaction product was extracted and the radioactivity was counted. The MAO-A activity was expressed as […] product formed/20 min/mg protein. The activity without the presence of inhibitor, compound 10, was taken as 100%.
In order to test an inhibitory activity of the MHI-clorgyline 10, a standard MAO A inhibition assay was carried out in C4-2B cells using radiolabeled substrates.

The subject of data set [2] is human prostate cancer cells. The data set can be described thus: Growth of prostate cancer cells in vitro. The format is cell-based. An excerpt:
(§2) In the present invention, it was unexpectedly discovered that increase of MAO-A activity or expression is correlated with the progression of human prostate cancer. […] This finding establishes MAOs as a target for cancer.

The test system of the next data set is tumor xenografts. In words: Growth of tumor xenografts in vivo.
Source text: as §2

Data set [3] deals with tumor xenografts and spontaneous tumors in transgenic mice. The settings on record: cited from earlier work.
Data set [4] relates to control and MAO-A-overexpressing PC-3 tumor xenografts. The data set can be described thus: In vivo and ex vivo MHI-148 NIR imaging of PC-3 tumor xenografts. Further details: species or system nude mice. The text has this:
FIG. 19 MAO-A enhanced NIR dye uptake in PC-3 tumor xenografts. (A) Representative in vivo MHI-148 NIR imaging (i.p. injection, 10 nmol/20 g) of nude mice subcutaneously implanted with control (left flank) and MAO-A-overexpressing (right flank) PC-3 cells. Arrows point to tumor xenografts. […] (C) Quantitation of tumor NIR intensity in (A) by determining total emission divided by tumor weight (5 mice). *, p<0.05.
A class of fluorescent heptamethine cyanines with near-infrared (NIR) emission maxima, such as MHI-148 dye, which has been identified recently, are non-toxic and have dual functions as tumor-specific targeting and imaging modalities. These dyes, partially mediated by hypoxia, are specifically retained in cancer but not normal cells, and also in tumor xenografts as well as spontaneous tumors in transgenic mice. […] This would allow the development and validation of novel PCa-seeking MAO-A inhibitors with acquired synergistic tumor-targeting abilities as new agents for PCa therapies with minimal systemic host toxicity.

The test system of a further data set is live cells. The data set can be described thus: Preliminary imaging study of IR-783 dye in live cells. The data set is classed as cell-based. The protocol: as §1

As a reminder, the IC50 is the concentration that gives 50% inhibition. In the case of `C#CCN(CCCOc1ccc(Cl)cc1Cl)CCCSC(=O)CCCCCN1/C(=C\C=C2/CCCC(/C=C/C3=[N+](CCCCCC(=O)O)c4ccccc4C3(C)C)=C2Cl)C(C)(C)c2ccccc21` [Compound 10], the subcellular localization result in data set [1] (co-staining with mitochondria-specific dye) is “localized in the mitochondria”. Further, the cellular accumulation result in data set [1] (confocal imaging) was “rapid accumulation”. Moreover, the half-maximal inhibitory concentration (IC50) on MAO A (37° C., 20 min pre-incubation, C-14 serotonin substrate) was found to be 21.8 µM. Further, on MAO A (data not shown), the “MAO A inhibitory activity compared with clorgyline” value is reported as “lesser than that of clorgyline itself”.
Turning to `C#CCN(C)CCCOc1ccc(Cl)cc1Cl` [clorgyline], the “growth of human prostate cancer cells” value in data set [2] is on record as “repressing the growth”. In addition, the “growth of tumor xenografts” value with tumor xenografts is “repressing the growth”.
Turning to `CC1(C)C(/C=C/C2=C(Cl)C(=C/C=C3/N(CCCCCC(=O)O)c4ccccc4C3(C)C)/CCC2)=[N+](CCCCCC(=O)O)c2ccccc21` [MHI-148], in data set [3], the “retention in cancer cells versus normal cells” value is on record as “retained in cancer cells but not normal cells”. In data set [4] (MAO-A-overexpressing vs control PC-3 xenografts, i.p. injection, 10 nmol/20 g), the “NIR dye uptake in tumor xenografts” value is recorded as “enhanced uptake”. Also, the “ex vivo NIR signal in tumor tissues versus organs” value in data set [4] (ex vivo NIR imaging, nude mice with PC-3 xenografts) is on record as “Tumor tissues but not organs displayed strong signals”.
For the compound `CC1(C)C(=CC=C2CCCC(C=CC3=[N+](CCCCS(=O)(=O)[O-])c4ccccc4C3(C)C)=C2Cl)N(CCCCS(=O)(=O)[O-])c2ccccc21.[Na+]` [IR-783], the “retention in cancer cells versus normal cells” value in data set [3] was “retained in cancer cells but not normal cells”. Besides, the subcellular localization result with live cells is reported as “co-localized in mitochondria”.

Values taken from patent publication US9771625B2, “Monoamine oxidase inhibitors and methods for treatment and diagnosis of prostate cancer” (UNIVERSITY OF SOUTHERN CALIFORNIA, priority 2011, dated 2017).
